# Results as given in patent US20180162844A1, “CYCLOPROPANE DERIVATIVE AND DRUG CONTAINING SAME” (EA PHARMA CO., LTD., priority 2015, published 2018).
# Target: T1, human TRPA1 (Homo sapiens, UniProt O75762)
# T1 construct: full-length human TRPA1 gene was amplified; expressed in transfected cells; host or cells: Human embryonic kidney-derived 293T cells, transient transfection with pcDNA3.1/zeo(+) human TRPA1 expression plasmid
# Assay: Measurement of TRPA1 antagonist activity (intracellular calcium increase, allylisothiocyanate stimulation, 293T cells transfected with human TRPA1 expression plasmid)
# Assay type: cell-based
# Settings: Examples (Table 8-1); 293T cells expressing human TRPA1, allylisothiocyanate stimulation, FLIPR Calcium4, test substance added 10 min before AITC; read-out: hTRPA1 IC50
# Protocol: Experimental Example 1: Measurement of TRPA1 antagonist Activity
# Human TRPA1 Expression Plasmid
# Using cDNA encoding human TRPA1 (GenBank accession No. NM_007332) (manufactured by Kazusa DNA Research Institute, item No.: FHC07217) as a template, primer 1 (SEQ ID NO: 1) and primer 2 (SEQ ID NO: 2), PCR by PfuUltra High-Fidelity DNA Polymerase (Stratagene) was performed, and full-length human TRPA1 gene was amplified.
# A recognition site (underlined) of restriction enzyme HindIII was added to the 5′ end of human TRPA1 gene, and XbaI site (underlined) was added to the 3′ end of human TRPA1 gene, and GTT of the template sequence was changed to termination codon TAG (bold). The obtained double stranded DNA was enzyme-digested with HindIII and XbaI, and introduced into a multicloning site of expression plasmid pcDNA3.1/zeo(+) (manufactured by Invitrogen) to give a human TRPA1 expression plasmid.
# Human embryonic kidney-derived 293T cells were cultured in Dulbecco's Modified Eagle Medium containing 10% fetal bovine serum, 10 unit penicillin, and 10 μg streptomycin. One day before assay, 3×10^6 of 293T cells were plated on a petri dish having a diameter of 10 cm, and cultured in a CO2 incubator for 24 hr. OPTI-MEM I Reduced Serum Media (Invitrogen). (600 μL), Mirus TransIT-293 (Mirus Bio) (18 μL), and human TRPA1 expression plasmid (6 μg) were mixed, the total amount of the mixture was added to the cells on the petri dish to allow for gene transfer. The cells were recovered about for 8 hr later, plated on a poly-D-lysine coated 384 well black/clear bottom plate at 12,000 cells/well, and cultured overnight.
# Measurement of Intracellular Calcium Increase
# The medium was removed from the 384 well plate, calcium indicator (Molecular Device, trade name: FLIPR Calcium4 Assay Kit) dissolved in HBSS (Thermo Fisher Scientific) (pH 7.2) containing 20 mM HEPES was added (38 μL/well), and the cells were stained in a CO2 incubator for 1 hr. The 384 well plate was stood at room temperature for not less than 15 min, set on FDSS7000 (Hamamatsu Photonics K.K.), and a test substance solution was added at 10 μL/well. After 10 min, allylisothiocyanate solution (12 μL/well) was added, the relative fluorescence intensity was measured for 5 min after addition of the allylisothiocyanate solution.
# Preparation of Test Substance Solution and Allylisothiocyanate Solution
# A test substance solution was prepared to have a composition of HBSS (Thermo Fisher Scientific) (pH 7.2) containing 0.48% dimethyl sulfoxide, a test substance at 4.8-fold concentration of the evaluation concentration, 0.1% bovine serum albumin and 20 mM HEPES. An allylisothiocyanate solution was prepared to have a composition of HBSS (Thermo Fisher Scientific) (pH 7.2) containing 0.1% dimethyl sulfoxide, 100 μM allylisothiocyanate, 0.1% bovine serum albumin and 20 mM HEPES.
# Calculation of Antagonist Activity
# The activity rate of a test substance at each concentration was calculated, wherein the relative fluorescence intensity change of a well free of a test substance and containing allylisothiocyanate is 100% activity rate, and the relative fluorescence intensity change of a well free of a test substance and allylisothiocyanate is 0% activity rate. The inhibitory rate of a test substance at each concentration was calculated by subtracting the activity rate of the test substance from 100% activity rate, and the concentration of a test substance showing 50% inhibitory rate was calculated as IC50 from the sigmoid approximate curve by XLFit (idbs).
# T1 sequence (O75762 whole entry): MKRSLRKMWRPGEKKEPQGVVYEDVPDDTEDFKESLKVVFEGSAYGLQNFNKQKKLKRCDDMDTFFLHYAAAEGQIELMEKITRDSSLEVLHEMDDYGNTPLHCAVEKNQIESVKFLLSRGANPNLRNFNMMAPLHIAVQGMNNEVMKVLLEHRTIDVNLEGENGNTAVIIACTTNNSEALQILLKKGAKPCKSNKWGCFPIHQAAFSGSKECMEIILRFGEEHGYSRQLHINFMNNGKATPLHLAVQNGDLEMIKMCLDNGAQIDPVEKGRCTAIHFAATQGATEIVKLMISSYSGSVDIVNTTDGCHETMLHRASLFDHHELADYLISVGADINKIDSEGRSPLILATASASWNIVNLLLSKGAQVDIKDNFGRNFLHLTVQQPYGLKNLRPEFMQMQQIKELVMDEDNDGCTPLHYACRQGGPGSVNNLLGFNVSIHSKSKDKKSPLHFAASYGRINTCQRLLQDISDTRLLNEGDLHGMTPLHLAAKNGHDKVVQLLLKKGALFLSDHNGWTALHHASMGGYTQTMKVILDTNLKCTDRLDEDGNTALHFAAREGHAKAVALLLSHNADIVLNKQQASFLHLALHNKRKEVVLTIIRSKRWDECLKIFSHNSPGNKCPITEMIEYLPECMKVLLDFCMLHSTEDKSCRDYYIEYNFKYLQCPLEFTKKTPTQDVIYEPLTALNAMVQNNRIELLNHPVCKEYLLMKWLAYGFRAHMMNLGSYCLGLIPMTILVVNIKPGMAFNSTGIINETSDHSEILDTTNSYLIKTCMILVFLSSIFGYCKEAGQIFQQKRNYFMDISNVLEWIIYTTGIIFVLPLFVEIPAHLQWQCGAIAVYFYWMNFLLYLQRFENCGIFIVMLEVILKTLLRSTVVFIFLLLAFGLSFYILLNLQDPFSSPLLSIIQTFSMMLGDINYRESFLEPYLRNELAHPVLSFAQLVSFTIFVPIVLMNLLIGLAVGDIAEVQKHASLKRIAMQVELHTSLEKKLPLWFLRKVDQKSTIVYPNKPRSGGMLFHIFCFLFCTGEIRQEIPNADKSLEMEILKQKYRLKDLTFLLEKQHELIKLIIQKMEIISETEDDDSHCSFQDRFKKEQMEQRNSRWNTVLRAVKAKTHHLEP
row,Structure (SMILES),IC50
1,"O=C(NCc1ccc(O)c(-c2ccc(C(F)(F)F)cn2)c1)C1(NS(=O)(=O)c2cc3cc(F)ccc3o2)CC1 [Example 18, 1-[(5-fluorobenzofuran-2-yl)sulfonylamino]-N-[[4-hydroxy-3-[5-(trifluoromethyl)-2-pyridyl]phenyl]methyl]-cyclopropanecarboxamide]",25 nM
2,CN(C)c1nc(CNC(=O)C2(NS(=O)(=O)c3cc4cc(F)ccc4o3)CC2)cc(-c2ccc(C(F)(F)F)cc2)n1 [Example 19],38 nM
3,"O=C(NCc1cc(-c2ccc(C(F)(F)F)cc2O)ncn1)C1(NS(=O)(=O)c2cc3cc(F)ccc3o2)CC1 [Example 20, 1-[(5-fluorobenzofuran-2-yl)sulfonylamino]-N-[[6-[2-hydroxy-4-(trifluoromethyl)-phenyl]pyrimidin-4-yl]methyl]cyclopropanecarboxamide]",23 nM
4,"O=C(NCc1cc(-c2ccc(C(F)(F)F)cc2)ncn1)C1(NS(=O)(=O)c2cc3ccccc3o2)CC1 [Example 21, 1-(benzofuran-2-ylsulfonylamino)-N-[[6-[4-(trifluoromethyl)phenyl]pyrimidin-4-yl]methyl]cyclopropanecarboxamide]",77 nM
5,"O=C(NCc1cc(-c2ccc(C(F)(F)F)cn2)ccn1)C1(NS(=O)(=O)c2cc3ccccc3o2)CC1 [Example 22, 1-(benzofuran-2-ylsulfonylamino)-N-[[4-[5-(trifluoromethyl)-2-pyridyl]-2-pyridyl]methyl]-cyclopropanecarboxamide]",130 nM
6,"CN(C)c1nc(CNC(=O)C2(NS(=O)(=O)c3cc4ccccc4o3)CC2)cc(-c2ccc(C(F)(F)F)cc2)n1 [Example 23, 1-(benzofuran-2-ylsulfonylamino)-N-[[2-(dimethylamino)-6-[4-(trifluoromethyl)phenyl]pyrimidin-4-yl]methyl]cyclopropanecarboxamide]",100 nM
7,"CC(C)N(C1(C(=O)NCc2cc(-c3ccc(C(F)(F)F)nc3)ncn2)CC1)S(=O)(=O)c1cc2cc(F)ccc2o1 [Example 24, 1-[(5-fluorobenzofuran-2-yl)sulfonyl-isopropyl-amino]-N-[[6-[6-(trifluoromethyl)-3-pyridyl]pyrimidin-4-yl]methyl]cyclopropanecarboxamide]",3.3 nM

# Other lines, results leading:
row,IC50,Structure (SMILES)
1,8.1 nM,"CC(C)N(C1(C(=O)NCc2cc(-c3ccc(C(F)(F)F)nc3)ncn2)CC1)S(=O)(=O)c1cc2ccccc2o1 [Example 25, 1-[benzofuran-2-ylsulfonyl(isopropyl)amino]-N-[[6-[6-(trifluoromethyl)-3-pyridyl]pyrimidin-4-yl]methyl]cyclopropanecarboxamide]"
2,45 nM,"O=C(NCc1cc(-c2ccc(C(F)(F)F)cc2)ncn1)C1(NS(=O)(=O)c2cc3cnccc3o2)CC1 [Example 26, 1-(furo[3,2-c]pyridin-2-ylsulfonylamino)-N-[[6-[4-(trifluoromethyl)phenyl]pyrimidin-4-yl]methyl]cyclopropanecarboxamide]"
3,86 nM,"O=C(NCc1cc(-c2ccc(C(F)(F)F)cc2)nc(N2CCCC2)c1)C1(NS(=O)(=O)c2cc3cc(F)ccc3o2)CC1 [Example 27, 1-[(5-fluorobenzofuran-2-yl)sulfonylamino]-N-[[2-pyrrolidin-1-yl-6-[4-(trifluoromethyl)phenyl]-4-pyridyl]methyl]-cyclopropanecarboxamide]"
4,260 nM,"O=C(NCc1cc(-c2ccc(C(F)(F)F)cc2)nc(N2CCCC2)c1)C1(NS(=O)(=O)c2cc3ccccc3o2)CC1 [Example 28, 1-(benzofuran-2-ylsulfonylamino)-N-[[2-pyrrolidin-1-yl-6-[4-(trifluoromethyl)phenyl]-4-pyridyl]methyl]-cyclopropanecarboxamide]"
5,1.2 nM,"CN(C1(C(=O)NCc2cc(-c3ccc(C(F)(F)F)cn3)ccn2)CC1)S(=O)(=O)c1cc2cc(F)ccc2o1 [Example 29, 1-[(5-fluorobenzofuran-2-yl)sulfonyl-methyl-amino]-N-[[4-[5-(trifluoromethyl)-2-pyridyl]-2-pyridyl]methyl]-cyclopropanecarboxamide]"
